Source: patent US20070149446A1, “Tamandarin analogs and fragments thereof and methods of making and using” (The Trustees of the University of Pennsylvania Center for …, priority 2003, published 2007)
Where two headings read alike, the source gives them in different places. Starred links: 1 amine or outer side, 2 acyl side, 3 side chain; linkers in the order of their positions; H or OH if unused. Positions of bridges follow the written chain, without caps; N, C: chain ends. Non-standard residues stand in square brackets, D forms with d. Residues, ends and D or L forms follow the SMILES beside them. Hexanoyl(3S-OH,4R-NH2,5-Me) = CC(C)[C@@H](N[*:1])[C@@H](O)CC(=O)[*:2]; NMeY = CN[C@@H](Cc1ccc(O)cc1)C(=O)O; dNMeL = CN[C@H](CC(C)C)C(=O)O; Hiv = CC(C)[C@H](O)C(=O)O; Lac = C[C@H](O)C(=O)O

Legend:
[1] = amide bond, 21-membered ring, HATU/NMM, CH3CN, 0.0 °C
[2] = amide bond, 17.0 h
PANC1 = test: SRB colorimetric cell growth inhibition assay, PANC1
Description: (§1) This form of assay employs 96 well cell culture microplates of […] diameter (Faircloth, 1988; Mosmann, 1983). Most of the cell lines are obtained from American Type Culture Collection (ATCC) derived from different human cancer types.
(§2) Cells are maintained in RPMI 1640 10% FBS, supplemented with 0.1 g/l penicillin and 0.1 g/l streptomycin sulfate and then incubated at 37° C., 5% CO2 and 98% humidity. For the experiments, cells were harvested from subconfluent cultures using trypsin and resuspended in fresh medium before plating.
(§3) Cells are seeded in 96 well microtiter plates, at 5×10^3 cells per well in aliquots of 195 μl medium, and they are allowed to attach to the plate surface by growing in drug free medium for 18 hours. Afterward, samples are added in aliquots of 5 μl in a ranging from 10 to 10-8 μg/ml, dissolved in DMSO/EtOH/PBS (0.5:0.5:99). After 48 hours exposure, the antitumor effect are measured by the SRB methodology: cells are fixed by adding 50 μl of cold 50% (wt/vol) trichloroacetic acid (TCA) and incubated for 60 minutes at 4° C.
(§4) Plates are washed with deionised water and dried. One hundred μl of SRB solution (0.4% wt/vol in 1% acetic acid) is added to each microtiter well and incubated for 10 minutes at room temperature. Unbound SRB is removed by washing with 1% acetic acid. Plates are air dried and bound stain is solubilized with Tris buffer. Optical densities are read on a automated spectrophotometric plate reader at a single wavelength of 490 nm.
(§5) The values for mean+/−SD of data from triplicate wells are calculated.
(§6) Some parameters for cellular responses can be calculated: GI=growth inhibition, TGI=total growth inhibition (cytostatic effect) and LC=cell killing (cytotoxic effect).

SK-MEL-28 = test: SRB colorimetric cell growth inhibition assay, SK-MEL-28
Description: as §1, §2, §3, §4, §5, §6

IGROV-ET = test: SRB colorimetric cell growth inhibition assay, IGROV-ET
Description: as §1, §2, §3, §4, §5, §6

LOVO-DOX = test: SRB colorimetric cell growth inhibition assay, LOVO-DOX
Description: as §1, §2, §3, §4, §5, §6

HELA = test: SRB colorimetric cell growth inhibition assay, HELA
Description: as §1, §2, §3, §4, §5, §6

DU145 = test: SRB colorimetric cell growth inhibition assay, DU145
Description: as §1, §2, §3, §4, §5, §6

SK-BR3 = test: SRB colorimetric cell growth inhibition assay, SK-BR3
Description: as §1, §2, §3, §4, §5, §6

LOVO = test: SRB colorimetric cell growth inhibition assay, LOVO
Description: as §1, §2, §3, §4, §5, §6

IGROV = test: SRB colorimetric cell growth inhibition assay, IGROV
Description: as §1, §2, §3, §4, §5, §6

LN-caP = test: SRB colorimetric cell growth inhibition assay, LN-caP
Description: as §1, §2, §3, §4, §5, §6

K562 = test: SRB colorimetric cell growth inhibition assay, K562
Description: as §1, §2, §3, §4, §5, §6

A549 = test: SRB colorimetric cell growth inhibition assay, A549
Description: as §1, §2, §3, §4, §5, §6

HT29 = test: SRB colorimetric cell growth inhibition assay, HT29
Description: as §1, §2, §3, §4, §5, §6

HELA-APL = test: SRB colorimetric cell growth inhibition assay, HELA-APL
Description: as §1, §2, §3, §4, §5, §6

[3] = Homo sapiens, 48 h, read-out: LC50

[Ser^6]-Tamandarin B macrocycle
ring closure, isolated yield ([1]; 5.7 mM): 89%

COc1ccc(C[C@H]2C(=O)OC[C@H](NC(=O)OC(C)(C)C)C(=O)N[C@H](C(C)C)[C@@H](O)CC(=O)O[C@@H](C(C)C)C(=O)N[C@@H](CC(C)C)C(=O)N3CCC[C@H]3C(=O)N2C)cc1
ring closure, yield of all isomers ([2]; from CN[C@@H](Cc1ccc(OC)cc1)C(=O)OC[C@H](NC(=O)OC(C)(C)C)C(=O)N[C@H](C(C)C)[C@@H](O)CC(=O)O[C@H](C(=O)N[C@@H](CC(C)C)C(=O)N1CCC[C@H]1C(=O)O)C(C)C, HATU/NMM, CH3CN, 5.7 mM, 25.0 °C): 89%

[Ala^4]-Tamandarin B macrocycle
ring closure, isolated yield ([1]; 4.6 mM): 60%

COc1ccc(C[C@H]2C(=O)O[C@H](C)[C@H](NC(=O)OC(C)(C)C)C(=O)N[C@H](C(C)C)[C@@H](O)CC(=O)O[C@@H](C(C)C)C(=O)N[C@@H](CC(C)C)C(=O)N(C)[C@@H](C)C(=O)N2C)cc1
ring closure, yield of all isomers ([2]; from CN[C@@H](Cc1ccc(OC)cc1)C(=O)O[C@H](C)[C@H](NC(=O)OC(C)(C)C)C(=O)N[C@H](C(C)C)[C@@H](O)CC(=O)O[C@H](C(=O)N[C@@H](CC(C)C)C(=O)N(C)[C@@H](C)C(=O)O)C(C)C, HATU/NMM, CH3CN, 4.8 mM, 25.0 °C): 48%

COc1ccc(C[C@H]2C(=O)O[C@H](C)[C@H](NC(=O)OC(C)(C)C)C(=O)N[C@H](C(C)C)[C@@H](O[Si](C(C)C)(C(C)C)C(C)C)CC(=O)O[C@@H](C(C)C)C(=O)N[C@@H](CC(C)C)C(=O)N3CCC[C@H]3C(=O)N2C)cc1
ring closure, yield of all isomers ([2]; from COc1ccc(C[C@@H](C(=O)O[C@H](C)[C@H](NC(=O)OC(C)(C)C)C(=O)O)N(C)C(=O)[C@@H]2CCCN2C(=O)[C@H](CC(C)C)NC(=O)[C@@H](OC(=O)C[C@H](O[Si](C(C)C)(C(C)C)C(C)C)[C@H](N)C(C)C)C(C)C)cc1, HATU/DIEA, DMF, 10.0 mM, 25.0 °C, 3 steps): 19%

[2-Naphthylala^5]-Tamandarin B macrocycle
ring closure, isolated yield ([1]; 5.0 mM): 65%

CC(C)C[C@@H]1NC(=O)[C@H](C(C)C)OC(=O)C[C@H](O[Si](C(C)C)(C(C)C)C(C)C)[C@@H](C(C)C)NC(=O)[C@@H](NC(=O)OC(C)(C)C)[C@@H](C)OC(=O)[C@H](Cc2ccccc2)N(C)C(=O)[C@@H]2CCCN2C1=O
ring closure, yield of all isomers ([2]; from CC(C)C[C@H](NC(=O)[C@@H](OC(=O)C[C@H](O[Si](C(C)C)(C(C)C)C(C)C)[C@H](N)C(C)C)C(C)C)C(=O)N1CCC[C@H]1C(=O)N(C)[C@@H](Cc1ccccc1)C(=O)O[C@H](C)[C@H](NC(=O)OC(C)(C)C)C(=O)O, HATU/DIEA, DMF, 8.9 mM, 25.0 °C, 3 steps): 15%

COc1ccc(C[C@H]2C(=O)O[C@H](C)[C@H](NC(=O)[C@@H](CC(C)C)N(C)C(=O)[C@@H]3CCCN3C(=O)[C@H](C)O)C(=O)N[C@H](C(C)C)[C@@H](O)CC(=O)O[C@@H](C(C)C)C(=O)N[C@@H](CC(C)C)C(=O)N[C@@H](C)C(=O)N2C)cc1 [Compound 75, [N-Ala^4]-Tamandarin B] (H-[Lac]P[dNMeL]T[Hexanoyl(3S-OH,4R-NH2,5-Me)][Hiv]LA[NMeY](Me); ester 4-C)
GI50 (PANC1; Homo sapiens, PANC-1, 48 h): 3.75 µM
CC50 (PANC1; Homo sapiens, PANC-1, 48 h, read-out: LC50): ≥ 9.84 µM
TGI (PANC1; PANC1 cells, total growth inhibition, SRB, 48 hours exposure): 9.84E−06 Molar
GI50 (SK-MEL-28; Homo sapiens, SK-MEL-28, 48 h): 1.5 µM
CC50 (SK-MEL-28; Homo sapiens, SK-MEL-28, 48 h, read-out: LC50): 8 µM
TGI (SK-MEL-28; SK-MEL-28 cells, total growth inhibition, SRB, 48 hours exposure): 3.46E−06 Molar
GI50 (IGROV-ET; Homo sapiens, 48 h): 6.86 µM
CC50 (IGROV-ET; [3]): ≥ 9.84 µM
TGI (IGROV-ET; IGROV-ET cells, total growth inhibition, SRB, 48 hours exposure): 9.84E−06 Molar
GI50 (LOVO-DOX; Homo sapiens, 48 h): ≥ 9.84 µM
CC50 (LOVO-DOX; [3]): ≥ 9.84 µM
TGI (LOVO-DOX; LOVO-DOX cells, total growth inhibition, SRB, 48 hours exposure): 9.84E−06 Molar
TGI (HELA; HELA cells, total growth inhibition, SRB, 48 hours exposure): 3.60E−06 Molar
GI50 (HELA; Homo sapiens, HeLa, 48 h): 1.18 µM
CC50 (HELA; Homo sapiens, HeLa, 48 h, read-out: LC50): ≥ 9.84 µM
TGI (DU145; DU145 cells, total growth inhibition, SRB, 48 hours exposure): 4.95E−06 Molar
GI50 (DU145; Homo sapiens, DU-145, 48 h): 1.81 µM
CC50 (DU145; Homo sapiens, DU-145, 48 h, read-out: LC50): ≥ 9.84 µM
GI50 (SK-BR3; Homo sapiens, SK-BR-3, 48 h): 0.789 µM
CC50 (SK-BR3; Homo sapiens, SK-BR-3, 48 h, read-out: LC50): ≥ 9.84 µM
TGI (SK-BR3; SK-BR3 cells, total growth inhibition, SRB, 48 hours exposure): 3.39E−06 Molar
GI50 (LOVO; Homo sapiens, LoVo, 48 h): 3.55 µM
CC50 (LOVO; Homo sapiens, LoVo, 48 h, read-out: LC50): ≥ 9.84 µM
TGI (LOVO; LOVO cells, total growth inhibition, SRB, 48 hours exposure): 9.84E−06 Molar
GI50 (IGROV; Homo sapiens, IGROV, 48 h): 1.99 µM
CC50 (IGROV; Homo sapiens, IGROV, 48 h, read-out: LC50): ≥ 9.84 µM
TGI (IGROV; IGROV cells, total growth inhibition, SRB, 48 hours exposure): 5.29E−06 Molar
GI50 (LN-caP; Homo sapiens, LNCaP, 48 h): 0.548 µM
CC50 (LN-caP; Homo sapiens, LNCaP, 48 h, read-out: LC50): ≥ 9.84 µM
TGI (LN-caP; LN-caP cells, total growth inhibition, SRB, 48 hours exposure): 2.97E−06 Molar
GI50 (K562; Homo sapiens, K562, 48 h): 5.87 µM
CC50 (K562; Homo sapiens, K562, 48 h, read-out: LC50): ≥ 9.84 µM
TGI (K562; K562 cells, total growth inhibition, SRB, 48 hours exposure): 9.46E−06 Molar
TGI (A549; A549 cells, total growth inhibition, SRB, 48 hours exposure): 9.84E−06 Molar
GI50 (A549; Homo sapiens, A549, 48 h): 5.85 µM
CC50 (A549; Homo sapiens, A549, 48 h, read-out: LC50): ≥ 9.84 µM
TGI (HT29; HT29 cells, total growth inhibition, SRB, 48 hours exposure): 9.84E−06 Molar
GI50 (HT29; Homo sapiens, HT-29, 48 h): 4.22 µM
CC50 (HT29; Homo sapiens, HT-29, 48 h, read-out: LC50): ≥ 9.84 µM
TGI (HELA-APL; HELA-APL cells, total growth inhibition, SRB, 48 hours exposure): 9.84E−06 Molar
GI50 (HELA-APL; Homo sapiens, 48 h): ≥ 9.84 µM
CC50 (HELA-APL; [3]): ≥ 9.84 µM

COc1ccc(C[C@H]2C(=O)O[C@H](C)[C@H](NC(=O)OC(C)(C)C)C(=O)N[C@H](C(C)C)[C@@H](O)CC(=O)O[C@@H](C(C)C)C(=O)N[C@@H](CC(C)C)C(=O)N[C@@H](C)C(=O)N2C)cc1
ring closure, yield of all isomers ([2]; from CN[C@@H](Cc1ccc(OC)cc1)C(=O)O[C@H](C)[C@H](NC(=O)OC(C)(C)C)C(=O)N[C@H](C(C)C)[C@@H](O)CC(=O)O[C@H](C(=O)N[C@@H](CC(C)C)C(=O)N[C@@H](C)C(=O)O)C(C)C, HATU/NMM, CH3CN, 4.6 mM, 25.0 °C): 60%

[N-Me-Ala^4]-Tamandarin B macrocycle
ring closure, isolated yield ([1]; 4.8 mM): 48%

CC(C)C[C@@H]1NC(=O)[C@H](C(C)C)OC(=O)C[C@H](O)[C@@H](C(C)C)NC(=O)[C@@H](NC(=O)OC(C)(C)C)[C@@H](C)OC(=O)[C@H](Cc2ccc3ccccc3c2)N(C)C(=O)[C@@H]2CCCN2C1=O
ring closure, yield of all isomers ([2]; from CN[C@@H](Cc1ccc2ccccc2c1)C(=O)O[C@H](C)[C@H](NC(=O)OC(C)(C)C)C(=O)N[C@H](C(C)C)[C@@H](O)CC(=O)O[C@H](C(=O)N[C@@H](CC(C)C)C(=O)N1CCC[C@H]1C(=O)O)C(C)C, HATU, CH3CN, 5.0 mM, 0.0 °C): 65%
